The text below walks through data of US11440915B2, “Triazolo-azepine derivatives” (Hoffmann-La Roche Inc., priority 2017, dated 2022).

The target of the assay is γ-secretase (Homo sapiens (Human), UniProt P49768). The experiment in a line: Cellular γ-secretase assay (inhibition of Aβ42 secretion, AlphaLisa). Type of assay: cell-based. The note with it: human neuroglioma H4 cells overexpressing human APP695 Swedish double mutation, 24 hr compound incubation. The procedure:
Human neuroglioma H4 cells overexpressing human APP695 with the Swedish double mutation (K595N/M596L) were plated at 30,000 cells/well/100 μl in 96-well plates in IMDM media containing 10% FCS, 0.2 mg/l Hygromycin B and incubated at 37° C., 5% CO2.
3-4 hr post plating, compounds are a diluted in media and 50 μl is added as 1.5-fold concentrate to achieve the final concentration. Compound incubation is performed for 24 hr. Final doses typically range from 4 μM down to 0.001 μM in half-log steps resulting in a eight point dose response curve.
Appropriate controls using vehicle only and reference compound were applied to this assay. The final concentration of Me2SO was 0.4%.
After incubation at 37° C., 5% CO2, the supernatant was subjected to quantification of secreted Aβ42 by the means of an AlphaLisa assay kit (Human Amyloid beta 1-42 Kit: Cat #AL203C, Perkin Elmer). 20 μl of the cell culture supernatant was transferred to an assay plate. Then 10 μl of a mixture of the AlphaLisa coupled capture antibody and the biotinylated detection antibody was added and incubated for 3 hours at room temperature while softly shaking the assay plate. After a further addition of 20 μl of the Donor beads the assay plate was incubated for 30 min at room temperature and constant shaking without exposure to direct light. The assay plate was then read on a Paradigm AlphaLisa Reader using the build-in program with excitation at 680 nm and emission at 570 nm.
The measured signals were then used to calculate IC50 values for inhibition of Aβ42 secretion by nonlinear regression fit analysis using XLfit 5.3 software (IDBS).
In general terms: Bead proximity is the source of the signal in Alpha formats.
By EC50 is commonly meant the concentration at which the effect is half-maximal. Turning to `Cc1cn(C23CC(Nc4nc5n(n4)CCCC[C@@H]5c4cccc(Cl)c4)(C2)C3)cn1` [Example 1, (9R)-9-(3-chlorophenyl)-N-[3-(4-methylimidazol-1-yl)-1-bicyclo[1.1.1]pentanyl]-6,7,8,9-tetrahydro-5H-[1,2,4]triazolo[1,5-a]azepin-2-amine], the concentration for a half-maximal effect (EC50) was 15 nM.

`Cc1cn(C23CC(Nc4nc5n(n4)CCCC[C@H]5c4cccc(Cl)c4)(C2)C3)cn1` [Example 2, (9S)-9-(3-chlorophenyl)-N-[3-(4-methylimidazol-1-yl)-1-bicyclo[1.1.1]pentanyl]-6,7,8,9-tetrahydro-5H-[1,2,4]triazolo[1,5-a]azepin-2-amine] came in with an EC50 of 16 nM. With `Cc1cn(C23CC(Nc4nc5n(n4)CCCC[C@@H]5c4ccc(F)cc4)(C2)C3)cn1` [Example 3, (9R)-9-(4-fluorophenyl)-N-[3-(4-methylimidazol-1-yl)-1-bicyclo[1.1.1]pentanyl]-6,7,8,9-tetrahydro-5H-[1,2,4]triazolo[1,5-a]azepin-2-amine] the figure was 25 nM; with `Cc1cn(C23CC(Nc4nc5n(n4)CCCC[C@H]5c4ccc(F)cc4)(C2)C3)cn1` [Example 4, (9S)-9-(4-fluorophenyl)-N-[3-(4-methylimidazol-1-yl)-1-bicyclo[1.1.1]pentanyl]-6,7,8,9-tetrahydro-5H-[1,2,4]triazolo[1,5-a]azepin-2-amine], 31 nM. `Cc1cn(C23CC(Nc4nc5n(n4)CCCC[C@@H]5c4ccc(Cl)cc4)(C2)C3)cn1` [Example 5, (9R)-9-(4-chlorophenyl)-N-[3-(4-methylimidazol-1-yl)-1-bicyclo[1.1.1]pentanyl]-6,7,8,9-tetrahydro-5H-[1,2,4]triazolo[1,5-a]azepin-2-amine]: the EC50 was 26 nM.

`Cc1cn(C23CC(Nc4nc5n(n4)CCCC[C@H]5c4ccc(Cl)cc4)(C2)C3)cn1` [Example 6, (9S)-9-(4-chlorophenyl)-N-[3-(4-methylimidazol-1-yl)-1-bicyclo[1.1.1]pentanyl]-6,7,8,9-tetrahydro-5H-[1,2,4]triazolo[1,5-a]azepin-2-amine] showed an EC50 of 23 nM. The result for `Cc1cn(C23CCC(Nc4nc5n(n4)CCCC[C@@H]5c4cc(F)cc(Cl)c4)(CC2)CC3)cn1` [Example 7, (9R)-9-(3-chloro-5-fluoro-phenyl)-N-[4-(4-methylimidazol-1-yl)-1-bicyclo[2.2.2]octanyl]-6,7,8,9-tetrahydro-5H-[1,2,4]triazolo[1,5-a]azepin-2-amine] reads 15 nM; that for `Cc1cn(C23CCC(Nc4nc5n(n4)CCCC[C@H]5c4cc(F)cc(Cl)c4)(CC2)CC3)cn1` [Example 8, (9S)-9-(3-chloro-5-fluoro-phenyl)-N-[4-(4-methylimidazol-1-yl)-1-bicyclo[2.2.2]octanyl]-6,7,8,9-tetrahydro-5H-[1,2,4]triazolo[1,5-a]azepin-2-amine], 14 nM. With `Cc1cn(C23CC(Nc4nc5n(n4)CCCC[C@@H]5c4cc(F)cc(Cl)c4)(C2)C3)cn1` [Example 9, (9R)-9-(3-chloro-5-fluoro-phenyl)-N-[3-(4-methylimidazol-1-yl)-1-bicyclo[1.1.1]pentanyl]-6,7,8,9-tetrahydro-5H-[1,2,4]triazolo[1,5-a]azepin-2-amine] the figure was 8 nM; with `Cc1cn(C23CC(Nc4nc5n(n4)CCCC[C@H]5c4cc(F)cc(Cl)c4)(C2)C3)cn1` [Example 10, (9S)-9-(3-chloro-5-fluoro-phenyl)-N-[3-(4-methylimidazol-1-yl)-1-bicyclo[1.1.1]pentanyl]-6,7,8,9-tetrahydro-5H-[1,2,4]triazolo[1,5-a]azepin-2-amine], 14 nM; with `Cc1cn(C23CCC(Nc4nc5n(n4)CCCC[C@@H]5c4ccc(F)c(F)c4)(CC2)CC3)cn1` [Example 11, (9R)-9-(3,4-difluorophenyl)-N-[4-(4-methylimidazol-1-yl)-1-bicyclo[2.2.2]octanyl]-6,7,8,9-tetrahydro-5H-[1,2,4]triazolo[1,5-a]azepin-2-amine], 39 nM. With `Cc1cn(C23CCC(Nc4nc5n(n4)CCCC[C@H]5c4ccc(F)c(F)c4)(CC2)CC3)cn1` [Example 12, (9S)-9-(3,4-difluorophenyl)-N-[4-(4-methylimidazol-1-yl)-1-bicyclo[2.2.2]octanyl]-6,7,8,9-tetrahydro-5H-[1,2,4]triazolo[1,5-a]azepin-2-amine] the figure was 49 nM; with `Cc1cn(C23CC(Nc4nc5n(n4)CCCC[C@@H]5c4ccc(F)c(F)c4)(C2)C3)cn1` [Example 13, (9R)-9-(3,4-difluorophenyl)-N-[3-(4-methylimidazol-1-yl)-1-bicyclo[1.1.1]pentanyl]-6,7,8,9-tetrahydro-5H-[1,2,4]triazolo[1,5-a]azepin-2-amine], 44 nM; with `Cc1cn(C23CC(Nc4nc5n(n4)CCCC[C@H]5c4ccc(F)c(F)c4)(C2)C3)cn1` [Example 14, (9S)-9-(3,4-difluorophenyl)-N-[3-(4-methylimidazol-1-yl)-1-bicyclo[1.1.1]pentanyl]-6,7,8,9-tetrahydro-5H-[1,2,4]triazolo[1,5-a]azepin-2-amine], 27 nM. `Cc1cn(C23CC(Nc4nc5n(n4)CCCC[C@@H]5c4ccccc4F)(C2)C3)cn1` [Example 15, (9R)-9-(2-fluorophenyl)-N-[3-(4-methylimidazol-1-yl)-1-bicyclo[1.1.1]pentanyl]-6,7,8,9-tetrahydro-5H-[1,2,4]triazolo[1,5-a]azepin-2-amine]: the 50% effective concentration (EC50) was found to be 38 nM. With `Cc1cn(C23CC(Nc4nc5n(n4)CCCC[C@H]5c4ccccc4F)(C2)C3)cn1` [Example 16, (9S)-9-(2-fluorophenyl)-N-[3-(4-methylimidazol-1-yl)-1-bicyclo[1.1.1]pentanyl]-6,7,8,9-tetrahydro-5H-[1,2,4]triazolo[1,5-a]azepin-2-amine] the figure was 19 nM; with `Cc1cn(C23CCC(Nc4nc5n(n4)CCCC[C@@H]5c4ccccc4F)(CC2)CC3)cn1` [Example 17, (9R)-9-(2-fluorophenyl)-N-[4-(4-methylimidazol-1-yl)-1-bicyclo[2.2.2]octanyl]-6,7,8,9-tetrahydro-5H-[1,2,4]triazolo[1,5-a]azepin-2-amine], 56 nM; with `Cc1cn(C23CCC(Nc4nc5n(n4)CCCC[C@H]5c4ccccc4F)(CC2)CC3)cn1` [Example 18, (9S)-9-(2-fluorophenyl)-N-[4-(4-methylimidazol-1-yl)-1-bicyclo[2.2.2]octanyl]-6,7,8,9-tetrahydro-5H-[1,2,4]triazolo[1,5-a]azepin-2-amine], 62 nM.

`Cc1cn(C23CC(Nc4nc5n(n4)CCCC[C@@H]5c4ccc(F)c(F)c4F)(C2)C3)cn1` [Example 19, (9R)-N-[3-(4-methylimidazol-1-yl)-1-bicyclo[1.1.1]pentanyl]-9-(2,3,4-trifluorophenyl)-6,7,8,9-tetrahydro-5H-[1,2,4]triazolo[1,5-a]azepin-2-amine] displayed an EC50 of 14 nM. The result for `Cc1cn(C23CC(Nc4nc5n(n4)CCCC[C@H]5c4ccc(F)c(F)c4F)(C2)C3)cn1` [Example 20, (9S)-N-[3-(4-methylimidazol-1-yl)-1-bicyclo[1.1.1]pentanyl]-9-(2,3,4-trifluorophenyl)-6,7,8,9-tetrahydro-5H-[1,2,4]triazolo[1,5-a]azepin-2-amine] reads 10 nM. The result for `Cc1cn(C23CCC(Nc4nc5n(n4)CCCC[C@@H]5c4ccc(F)c(F)c4F)(CC2)CC3)cn1` [Example 21, (9R)-N-[4-(4-methylimidazol-1-yl)-1-bicyclo[2.2.2]octanyl]-9-(2,3,4-trifluorophenyl)-6,7,8,9-tetrahydro-5H-[1,2,4]triazolo[1,5-a]azepin-2-amine] reads 43 nM. The result for `Cc1cn(C23CCC(Nc4nc5n(n4)CCCC[C@H]5c4ccc(F)c(F)c4F)(CC2)CC3)cn1` [Example 22, (9S)-N-[4-(4-methylimidazol-1-yl)-1-bicyclo[2.2.2]octanyl]-9-(2,3,4-trifluorophenyl)-6,7,8,9-tetrahydro-5H-[1,2,4]triazolo[1,5-a]azepin-2-amine] reads 27 nM.
